Measurements reported in ChEMBL document CHEMBL1201862, “PubChem BioAssay data set” (2004).
Activity calls are given as the source filed them.

Columns and labels:
HEK293 [1] = assay: inhibition of NOD1-driven NF-kB reporter – cell-based, luminescence, uHTS, primary screen (AID 1578); assay type: functional; settings: Homo sapiens
HEK293 [2] = assay: cells; assay type: functional, cell-based; settings: Homo sapiens
HEK293 [3] = assay: cells; assay type: functional, cell-based; settings: Homo sapiens; remark: listed apart in the source
HEK293 [4] = assay: NOD2 signaling inhibitors in MDP-stimulated cells, cell-based, uHTS, luminescence (AID 2001); assay type: functional; settings: Homo sapiens
Tumor necrosis factor = Tumor necrosis factor (Homo sapiens, UniProt P01375); assay: analog potency on TNFa NF-kB signaling – cell-based, revised, SAR follow-up (AID 2337); assay type: functional
[5] = molecular target: T1, Nucleotide-binding oligomerization domain-containing protein 1 (Homo sapiens, UniProt Q9Y239); assay: blockers of NOD1 pathway activity – revised, SAR follow-up (AID 2333); assay type: functional
T1 sequence (Q9Y239 whole entry): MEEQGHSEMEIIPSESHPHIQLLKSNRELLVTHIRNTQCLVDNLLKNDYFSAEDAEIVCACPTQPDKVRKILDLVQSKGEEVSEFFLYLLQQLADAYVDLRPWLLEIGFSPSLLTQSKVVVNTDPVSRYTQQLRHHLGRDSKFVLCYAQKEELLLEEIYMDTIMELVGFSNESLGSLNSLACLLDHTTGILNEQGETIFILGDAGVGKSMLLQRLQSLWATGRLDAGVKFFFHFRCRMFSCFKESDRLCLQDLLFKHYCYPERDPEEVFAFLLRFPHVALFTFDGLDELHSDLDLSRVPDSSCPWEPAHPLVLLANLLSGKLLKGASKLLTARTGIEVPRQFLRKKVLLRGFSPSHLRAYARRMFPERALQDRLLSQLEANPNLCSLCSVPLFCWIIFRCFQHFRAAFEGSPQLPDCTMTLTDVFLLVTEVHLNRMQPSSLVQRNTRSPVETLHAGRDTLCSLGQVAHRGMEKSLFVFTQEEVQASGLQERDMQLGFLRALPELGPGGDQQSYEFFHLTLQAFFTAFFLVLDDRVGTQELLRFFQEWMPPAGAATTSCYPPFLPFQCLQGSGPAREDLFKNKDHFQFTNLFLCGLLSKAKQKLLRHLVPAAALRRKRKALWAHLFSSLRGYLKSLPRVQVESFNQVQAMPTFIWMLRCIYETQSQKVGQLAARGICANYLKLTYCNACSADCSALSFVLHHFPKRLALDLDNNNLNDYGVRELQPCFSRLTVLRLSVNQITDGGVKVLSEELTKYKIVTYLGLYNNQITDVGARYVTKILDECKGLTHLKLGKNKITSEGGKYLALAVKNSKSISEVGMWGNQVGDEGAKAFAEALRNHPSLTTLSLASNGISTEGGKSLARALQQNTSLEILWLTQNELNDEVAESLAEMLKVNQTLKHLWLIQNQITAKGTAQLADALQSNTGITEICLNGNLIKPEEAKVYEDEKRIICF

INS1 = assay: INS-1E survival protection against cytokine death – cell-based, luminescence, retest, dose response (AID 449756); assay type: functional; settings: Rattus norvegicus;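 further: cell death triggered by IL-1 beta plus TNF-alpha plus IFN-gamma mixture; protective hits raise ATP signal compared with cytokine alone wells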
HEK293 [6] = assay: cells; settings: Homo sapiens
Cytochrome P450 2D6 = Cytochrome P450 2D6 (Homo sapiens, UniProt P10635);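 further: CYP2D6 member of a cytochrome P450 panel assay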
Genome polyprotein = Genome polyprotein (dengue virus type 2, UniProt P29990); assay: flavivirus cap methylation enzyme inhibition – biochemical, confirmation dose response, primary screen (AID 588689); assay type: functional
[7] = molecular target: T2, Microphthalmia-associated transcription factor (Homo sapiens, UniProt O75030); assay: reducers of TRPM1 reporter luminescence, concentration series – cell-based, SK-MEL-5, cherry-picked, set 3, MITF inhibitor project, dose response (AID 493073); assay type: functional;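 further: SK-MEL-5 melanoma cells with luciferase driven by the MITF target TRPM1 promoter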
T2 sequence (O75030 whole entry): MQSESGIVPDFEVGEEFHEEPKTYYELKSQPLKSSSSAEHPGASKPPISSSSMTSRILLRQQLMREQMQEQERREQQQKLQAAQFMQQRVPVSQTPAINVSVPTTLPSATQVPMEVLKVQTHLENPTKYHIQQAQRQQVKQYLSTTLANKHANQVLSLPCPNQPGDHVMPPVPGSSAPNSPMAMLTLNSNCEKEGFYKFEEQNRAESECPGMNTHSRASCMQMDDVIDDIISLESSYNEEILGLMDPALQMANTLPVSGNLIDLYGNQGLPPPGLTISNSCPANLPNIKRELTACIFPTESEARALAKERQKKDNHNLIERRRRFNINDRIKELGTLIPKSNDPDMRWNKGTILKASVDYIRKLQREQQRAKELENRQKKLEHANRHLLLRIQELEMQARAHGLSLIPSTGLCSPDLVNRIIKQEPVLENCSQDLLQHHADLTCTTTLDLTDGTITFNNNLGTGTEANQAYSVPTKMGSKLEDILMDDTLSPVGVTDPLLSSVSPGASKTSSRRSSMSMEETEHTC

Cytochrome P450 2C19 = Cytochrome P450 2C19 (Homo sapiens, UniProt P33261); assay: Cytochrome panel assay with activity outcomes. Panel member name: p450-cyp2c19 Compounds with AC50 equal or less than 10 uM are considered active; assay type: functional; settings: read-out: AC50
[8] = molecular target: DNA dC->dU-editing enzyme APOBEC-3G (Homo sapiens, UniProt Q9HC16); assay: Dose Response confirmation of small molecule APOBEC3G DNA Deaminase Inhibitors via a fluorescence-based single-stranded DNA deaminase assay. [Related pubchem assays (depositor defined):AID493012, AID493028]; assay type: functional
[9] = A cytotoxicity screen of small molecule inhibitors of the PhoP region in Salmonella typhi identified in the primary screen. [Related pubchem assays: 1850, 1864, 1985 ]; assay type: functional
[10] = molecular target: T3, Rac GTPase-activating protein 1 (Homo sapiens, UniProt Q9H0H5); assay: blockers of MgcRacGAP-driven Rac1 GTP hydrolysis – biochemical, ADP Hunter fluorescence, primary and confirmatory, confirmation (AID 624330); assay type: functional
T3 sequence (Q9H0H5 whole entry): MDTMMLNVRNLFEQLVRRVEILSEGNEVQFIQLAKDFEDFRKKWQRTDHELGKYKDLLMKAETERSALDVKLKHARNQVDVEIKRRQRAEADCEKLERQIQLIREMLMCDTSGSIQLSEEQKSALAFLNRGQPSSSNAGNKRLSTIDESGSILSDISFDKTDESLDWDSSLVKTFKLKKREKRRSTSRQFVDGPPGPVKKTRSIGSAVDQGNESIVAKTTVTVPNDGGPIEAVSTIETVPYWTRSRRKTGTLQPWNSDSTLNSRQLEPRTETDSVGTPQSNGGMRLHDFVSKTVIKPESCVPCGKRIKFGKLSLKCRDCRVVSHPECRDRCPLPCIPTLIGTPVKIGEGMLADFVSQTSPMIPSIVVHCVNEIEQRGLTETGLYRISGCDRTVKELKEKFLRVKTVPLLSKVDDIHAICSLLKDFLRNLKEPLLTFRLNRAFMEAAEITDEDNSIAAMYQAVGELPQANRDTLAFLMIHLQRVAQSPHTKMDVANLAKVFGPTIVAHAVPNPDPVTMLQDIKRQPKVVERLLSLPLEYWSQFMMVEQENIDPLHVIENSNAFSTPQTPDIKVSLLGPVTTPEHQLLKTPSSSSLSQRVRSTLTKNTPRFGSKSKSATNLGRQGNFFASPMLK

Chain of Cytochrome P450 2D6 (P10635 whole entry): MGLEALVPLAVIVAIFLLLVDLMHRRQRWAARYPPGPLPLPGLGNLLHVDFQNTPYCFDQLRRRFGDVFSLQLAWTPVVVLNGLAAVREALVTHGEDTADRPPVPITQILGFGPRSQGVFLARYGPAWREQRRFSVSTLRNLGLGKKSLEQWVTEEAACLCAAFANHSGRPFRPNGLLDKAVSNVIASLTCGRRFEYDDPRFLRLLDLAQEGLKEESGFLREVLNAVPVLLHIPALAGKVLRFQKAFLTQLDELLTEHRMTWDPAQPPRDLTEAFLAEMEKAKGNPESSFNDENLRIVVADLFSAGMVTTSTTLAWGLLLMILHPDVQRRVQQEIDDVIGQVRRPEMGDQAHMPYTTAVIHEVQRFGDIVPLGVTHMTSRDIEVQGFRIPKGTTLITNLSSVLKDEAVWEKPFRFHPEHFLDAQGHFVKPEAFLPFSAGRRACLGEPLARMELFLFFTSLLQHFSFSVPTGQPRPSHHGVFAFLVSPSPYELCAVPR
Chain of DNA dC->dU-editing enzyme APOBEC-3G (Q9HC16 whole entry): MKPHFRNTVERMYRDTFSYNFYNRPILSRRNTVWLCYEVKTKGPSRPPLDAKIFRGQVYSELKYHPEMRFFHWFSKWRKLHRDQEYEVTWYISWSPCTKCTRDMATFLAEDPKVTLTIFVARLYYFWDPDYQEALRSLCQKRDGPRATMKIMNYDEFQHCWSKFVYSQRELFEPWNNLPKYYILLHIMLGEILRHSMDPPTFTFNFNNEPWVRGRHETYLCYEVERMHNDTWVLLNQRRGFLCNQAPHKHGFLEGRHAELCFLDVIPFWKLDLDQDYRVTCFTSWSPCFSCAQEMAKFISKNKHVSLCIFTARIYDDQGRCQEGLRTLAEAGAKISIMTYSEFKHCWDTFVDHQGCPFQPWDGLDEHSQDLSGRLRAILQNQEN
Chain of Genome polyprotein (P29990 2492-3391 limits assumed): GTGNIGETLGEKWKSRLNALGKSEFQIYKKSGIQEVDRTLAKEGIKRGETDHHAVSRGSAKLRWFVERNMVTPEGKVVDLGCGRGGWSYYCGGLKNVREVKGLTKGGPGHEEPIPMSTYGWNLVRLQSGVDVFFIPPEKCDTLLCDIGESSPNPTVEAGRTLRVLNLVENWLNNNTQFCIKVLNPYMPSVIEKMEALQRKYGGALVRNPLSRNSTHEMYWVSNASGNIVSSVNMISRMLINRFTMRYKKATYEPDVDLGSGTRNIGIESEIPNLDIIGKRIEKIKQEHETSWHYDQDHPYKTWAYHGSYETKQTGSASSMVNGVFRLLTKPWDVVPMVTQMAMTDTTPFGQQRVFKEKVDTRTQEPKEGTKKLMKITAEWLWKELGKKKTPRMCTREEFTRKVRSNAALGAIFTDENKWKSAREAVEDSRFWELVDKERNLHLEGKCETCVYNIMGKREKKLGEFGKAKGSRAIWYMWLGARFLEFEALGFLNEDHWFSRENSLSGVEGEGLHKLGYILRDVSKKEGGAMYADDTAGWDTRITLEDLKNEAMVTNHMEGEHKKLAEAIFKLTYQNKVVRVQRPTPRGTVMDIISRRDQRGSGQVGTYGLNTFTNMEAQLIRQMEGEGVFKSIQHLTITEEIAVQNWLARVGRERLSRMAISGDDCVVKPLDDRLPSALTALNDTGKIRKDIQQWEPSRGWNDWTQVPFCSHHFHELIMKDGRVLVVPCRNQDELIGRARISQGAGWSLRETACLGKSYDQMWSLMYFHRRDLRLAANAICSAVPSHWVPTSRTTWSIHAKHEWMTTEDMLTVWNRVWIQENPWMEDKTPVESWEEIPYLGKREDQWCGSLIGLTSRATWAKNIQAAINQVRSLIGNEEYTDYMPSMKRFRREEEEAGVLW
Chain of Tumor necrosis factor (P01375 whole entry, the tested form may be a part): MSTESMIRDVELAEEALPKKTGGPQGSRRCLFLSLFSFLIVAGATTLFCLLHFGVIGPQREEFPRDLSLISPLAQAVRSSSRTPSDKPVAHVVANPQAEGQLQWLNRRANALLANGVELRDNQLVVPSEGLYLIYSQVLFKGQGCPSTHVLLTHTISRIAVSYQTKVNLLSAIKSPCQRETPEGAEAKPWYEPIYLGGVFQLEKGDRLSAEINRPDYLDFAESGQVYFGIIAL
Chain of Cytochrome P450 2C19 (P33261 whole entry): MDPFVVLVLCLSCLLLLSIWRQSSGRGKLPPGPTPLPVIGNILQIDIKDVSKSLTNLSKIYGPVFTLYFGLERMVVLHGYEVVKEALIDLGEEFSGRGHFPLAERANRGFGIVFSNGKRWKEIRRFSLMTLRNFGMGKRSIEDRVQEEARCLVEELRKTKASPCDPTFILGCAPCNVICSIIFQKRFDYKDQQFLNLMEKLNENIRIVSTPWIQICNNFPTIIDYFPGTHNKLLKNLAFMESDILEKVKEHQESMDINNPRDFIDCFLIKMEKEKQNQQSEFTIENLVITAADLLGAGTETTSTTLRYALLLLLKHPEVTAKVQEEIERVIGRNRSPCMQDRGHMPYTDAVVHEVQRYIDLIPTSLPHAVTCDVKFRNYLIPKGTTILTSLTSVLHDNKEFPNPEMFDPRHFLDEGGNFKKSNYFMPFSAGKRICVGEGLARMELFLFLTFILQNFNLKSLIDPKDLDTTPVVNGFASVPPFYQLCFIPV

CN(C)S(=O)(=O)c1cccc(CSCc2cccc(S(=O)(=O)N(C)C)c2)c1
EC50 (HEK293 [1]): 1.3 µM (active) | IC50 (HEK293 [2]): 3.06 µM (active) | IC50 (HEK293 [3]): > 20 µM (inactive) | IC50 (HEK293 [4]): 5 µM (active) | IC50 (Tumor necrosis factor): 2.09 µM (active) | IC50 [5]: 2.12 µM (active) | AC50 (INS1): 3.3 µM (active) | IC50 (HEK293 [6]): > 20 µM (inactive)

NCCCCC(=O)O [5-AMINOVALERIC ACID]
AC50 (Cytochrome P450 2D6): inconclusive

Cc1ccc(/C=C2\SC(=S)N(NS(=O)(=O)c3ccc(C)cc3)C2=O)cc1
IC50 (Genome polyprotein): 25.9 µM (active)

CCN1CCc2c(sc(NC(=O)c3ccc(S(=O)(=O)N4CCCC4)cc3)c2C(=O)NC)C1
AC50 [7]: 9.14 µM (active)

CC(C)Nc1c([N+](=O)[O-])nn(C)[n+]1[O-]
AC50 [7]: 299 µM (active)

CCOC(=O)CSc1nnc(NC(=O)c2cccc(S(=O)(=O)N3CCCCCC3)c2)s1
AC50 (Cytochrome P450 2C19): 2 µM (inconclusive) | AC50 (Cytochrome P450 2D6): inconclusive

Cc1cc(-c2nnc(S)n2/N=C/c2ccco2)[nH]n1
IC50 [8]: 14.2 µM (active)

CCCCN(CCCC)CCNC(=O)CSCc1ccc(C)cc1
EC50 [9]: > 50 µM (active) | IC50 [10]: 147 µM (active)

O=C1C(=NO)CCc2ccccc21
IC50 (Genome polyprotein): 88.6 µM (active)

O=C(CSc1ccccc1)Nc1nnc(COc2ccc(Cl)cc2)s1
IC50 [8]: 32.3 µM (active)
